Assay [1] deals with T1, AdipoR1 (Mus musculus, UniProt Q91VH1).
T1 construct: C2C12 cells (ATCC; CRL-1772, medium; host or cells: differentiated C2C12
T1 sequence (Q91VH1 1-375): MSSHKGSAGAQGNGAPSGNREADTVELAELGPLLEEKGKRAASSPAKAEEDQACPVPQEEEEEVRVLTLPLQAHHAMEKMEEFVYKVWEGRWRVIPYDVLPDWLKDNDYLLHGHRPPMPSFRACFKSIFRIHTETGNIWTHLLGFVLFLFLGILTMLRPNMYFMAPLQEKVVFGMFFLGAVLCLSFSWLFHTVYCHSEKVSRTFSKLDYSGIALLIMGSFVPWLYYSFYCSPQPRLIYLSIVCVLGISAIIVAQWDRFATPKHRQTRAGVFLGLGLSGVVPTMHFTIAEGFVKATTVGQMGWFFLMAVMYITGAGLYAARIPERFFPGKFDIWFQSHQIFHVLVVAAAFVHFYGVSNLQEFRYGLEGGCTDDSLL
As to the kind of experiment: Measurement of AMPK phosphorylation ability (Assay 1), differentiated C2C12 cells, Western blotting. It is filed as cell-based. The settings on record: 10 μM, 10 minutes. The protocol: The AMPK phosphorylation ability of the respective compounds according to the present invention was measured by using differentiated C2C12 cells or HEK 293T cells.
C2C12 cells (ATCC; CRL-1772, medium; DMEM, 10% FBS) were cultured in a 12- or 24-well plate until they reached 100% confluency (37° C., 5% CO2).
The medium was changed to 2.5% Horse Serum (HS) and differentiation was started. The medium (DMEM, 2.5% HS) was replaced every three days.
After starvation, a test compound listed in Table 12 (concentration: 10 μM) was added thereto, and after 10 minutes, the medium was discarded and the plate was frozen with liquid nitrogen.
To the 12- or 24-well cell plate which had been frozen was added 100 or 150 μL of Cell lysis buffer pH 7.4 (50 mM HEPES (pH 7.4), 2 mM sodium orthovanadate, 10 mM sodium pyrophosphate, 10 mM NaF, 2 mM EDTA, 2 mM EGTA, 0.1% (v/v) NP-40, 0.2 mM PMSF), and the cells were scraped off with a cell scraper, suspended and transferred into a micro centrifugal tube. And then, the cells were ultrasonically crushed (1 second×3 times) with a sonicator. Centrifugation was performed at 4° C. at 15,000 rpm for 15 minutes, and the supernatant was recovered into a new tube.
To 100 μL of the supernatant was added 25 μL of 5× sample buffer (280 mM Tris-HCl (pH 6.9), 40% glycerol, 10% (3-mercaptoethanol, 13% SDS, a small amount of bromophenol blue) and mixed together. The rest of the supernatant was used for protein quantification, and the protein concentrations were uniformed by adding 1× sample buffer depending on the concentration of each sample.
An electrophoresis chamber was filled with 1× SDS buffer (25 mM Tris-HCl, 250 mM glycine, 0.1% SDS), and the sample was applied to a well of polyacrylamide gel. Electrophoresis was performed until the bromophenol blue in the sample reached to the bottom of the gel.
A filter paper was soaked in 1× Transfer buffer sufficiently, above which the PVDF membrane and the gel after electrophoresis were stacked in this order, and thereabove a filter paper which had been soaked in 1× Transfer buffer sufficiently was further stacked, from which an air was removed and the resultant was set in semi-dry type transfer apparatus and transferred (7V, 35 minutes).
An unnecessary portion of the blotted membrane was cutoff, and the rest was immediately soaked in blocking buffer (5% skimmed milk in Rinse buffer), and shaken at room temperature at 40 rpm for 3 hours.
After blocking, the membrane was transferred into Rinse buffer, and washed at room temperature for 10 minutes while shaking. The membrane was soaked in a primary antibody solution (AMPK alpha Antibody (Cell signaling; #2532) 1/1,000 in Rinse buffer, Phospho-AMPK alpha (Thr172) (40H9) antibody (Cell signaling; #2535) 1/1,000 in Rinse buffer), and shaken at 4° C. at 40 rpm overnight.
The membrane was soaked in a secondary antibody solution (goat anti-rabbit IgG-HRP Antibody (Santa Cruz; sc-2030) 1/2,000 in Rinse buffer), and shaken at room temperature at 40 rpm for 1 hour.
After the membrane was washed for 45 minutes in the same way as after the primary antibody reaction, the membrane was soaked in a chemiluminescent reaction solution (ECL Western Blotting Detection Reagents, GE Healthcare) for about 1 minute. An excess of the reaction solution was removed, and then the membranes were arranged on a transparent film and sandwiched with it, with which an X-ray film was exposed in a darkroom (for about several seconds to 60 seconds) to develop the film.
The X-ray film was scanned to take the image, for which the band was measured by using the image analysis software “Image J” to determine the respective amounts of pAMPK and AMPK.
In general terms: A western blot detects proteins with antibodies after separation by electrophoresis.

The subject of assay [2] is AdipoR1. Nature of the assay: Measurement of AMPK phosphorylation ability (Assay 2), C2C12 cells with unrelated or AdipoR1 siRNA. It is filed as cell-based, Mouse. The protocol:
C2C12 cells (ATCC; CRL-1772, medium; DMEM, 10% Fetal Bovine Serum (FBS)) were cultured in a 12- or 24-well plate until they reached 100% confluency (37° C., 5% CO2). The medium was changed to DMEM, 2.5% Horse Serum (HS) and differentiation was started. The medium (DMEM, 2.5% HS) was replaced two days after the start of differentiation. The medium (DMEM, 2.5% HS) was further replaced two days after that.
On the next day following the replacement of the medium, first, 1 μL of Lipofectamine RNAiMAX and 50 μL of OPTI-MEM were mixed, and then 5 μM siRNA (sense siRNA sequence: […]tt (SEQ ID NO: 1)) and 50 μL of OPTI-MEM were mixed and the resultants were left to stand at room temperature for 5 minutes. And then, the 1 μL Lipofectamine RNAiMAX/50 μL OPTI-MEM and the 5 μM siRNA/50 μL OPTI-MEM were mixed, and the resultant was left to stand at room temperature for 10 minutes, which was added to the cells.
After 5 minutes, the medium (DMEM, 2.5 HS) was replaced, and after starvation on the next day, a test compound listed in Table 12 was added thereto. After 10 minutes, the medium was discarded and the plate was frozen with liquid nitrogen.
The respective amounts of pAMPK and AMPK were determined in the same way as in the above Assay 1.

With `COc1ccc(C(=O)N2CCN(Cc3ccc(C(F)(F)F)cc3)CC2)cc1OC` [No. 191294], at AdipoR1 [1], the “pAMPK/AMPK (%)” value was 89.56%. In addition, in the assay on AdipoR1 [2], the “pAMPK/AMPK (ratio) siRNA, AdipoR1 siRNA” value amounted to 3.54 ratio and the “pAMPK/AMPK (ratio) siRNA, unrelated siRNA” value is 3.25 ratio.
Consider `COCc1ccc(CN2CCC(Oc3ccc(C(=O)NC4CCCC4)cc3Cl)CC2)o1` [No. 195831], for which the “pAMPK/AMPK (%)” value at AdipoR1 [1] is listed as 99.10%. Further, in the assay on AdipoR1 [2], the “pAMPK/AMPK (ratio) siRNA, AdipoR1 siRNA” value amounted to 2.98 ratio and the “pAMPK/AMPK (ratio) siRNA, unrelated siRNA” value was 2.88 ratio.
The like results for `O=C(NCc1ccncc1)c1ccc(OC2CCN(Cc3ccoc3)CC2)cc1` [No. 196462] were, in that order, 82.72%, 2.58 ratio and 2.06 ratio.
In the same order, the values of `COCCNC(=O)c1ccc(OC2CCN(Cc3ccc(OC)cc3F)CC2)c(Cl)c1` [No. 197248] are 89.63%, 2.55 ratio and 2.09 ratio.
In the same order, the values of `COCCNC(=O)c1ccc(OC2CCN(Cc3ccc(C)s3)CC2)c(Cl)c1` [No. 197372] are 85.37%, 1.96 ratio and 1.78 ratio.
For the molecule `Cc1ccccc1CN1CCC(Oc2ccc(C(=O)NCc3ccccn3)cc2)CC1` [No. 198637], the “pAMPK/AMPK (%)” value at AdipoR1 [1] is 87.39%. Further, in the assay with AdipoR1 [2], the “pAMPK/AMPK (ratio) siRNA, AdipoR1 siRNA” value was 2.51 ratio and the “pAMPK/AMPK (ratio) siRNA, unrelated siRNA” value is listed as 2.24 ratio.
Turning to `CC(C)(C)CN1CCC(Oc2ccc(C(=O)NCCc3ccncc3)cc2Cl)CC1` [No. 200737], the “pAMPK/AMPK (%)” value at AdipoR1 [1] is listed as 83.71%. Besides, in the assay on AdipoR1 [2], the “pAMPK/AMPK (ratio) siRNA, AdipoR1 siRNA” value is on record as 2.68 ratio and the “pAMPK/AMPK (ratio) siRNA, unrelated siRNA” value worked out at 2.13 ratio.
For the molecule `CC(C)N(Cc1cnn(C)c1)C(=O)c1ccc(OC2CCN(Cc3ccccn3)CC2)cc1` [No. 206685], the “pAMPK/AMPK (%)” value at AdipoR1 [1] was determined as 90.15%. In addition, in the assay with AdipoR1 [2], the “pAMPK/AMPK (ratio) siRNA, AdipoR1 siRNA” value came out at 2.39 ratio and the “pAMPK/AMPK (ratio) siRNA, unrelated siRNA” value amounted to 1.76 ratio.
In the same order, the values of `CCOCCCNC(=O)c1ccc(OC2CCN(CC(C)(C)C)CC2)c(Cl)c1` [No. 209705] are 81.28%, 1.81 ratio and 1.52 ratio.
For `COCCNC(=O)c1ccc(OC2CCN([C@@H](C)COc3ccccc3)CC2)c(Cl)c1` [No. 211156], the “pAMPK/AMPK (%)” value at AdipoR1 [1] is given as 93.79%. Also, in the assay with AdipoR1 [2], the “pAMPK/AMPK (ratio) siRNA, AdipoR1 siRNA” value is listed as 2.59 ratio and the “pAMPK/AMPK (ratio) siRNA, unrelated siRNA” value is on record as 2.36 ratio.
`CCOc1cccc(CN2CCC(Oc3ccc(C(=O)NCCOC)cc3Cl)CC2)c1` [No. 214617]: the “pAMPK/AMPK (%)” value on AdipoR1 [1] is 91.97%. For the same molecule, in the assay on AdipoR1 [2], the “pAMPK/AMPK (ratio) siRNA, AdipoR1 siRNA” value was determined as 2.78 ratio and the “pAMPK/AMPK (ratio) siRNA, unrelated siRNA” value stood at 2.21 ratio.
In the same order, the values of `O=C(NC1CCCC1)c1ccc(OC2CCN(Cc3cccc(O)c3)CC2)c(Cl)c1` [No. 251327] are 83.18%, 3.15 ratio and 2.85 ratio.
In the same order, the values of `O=C(NCC[C@@H]1C[C@@H]2C=C[C@H]1C2)c1ccc(OC2CCN(Cc3ccccn3)CC2)cc1` [No. 260544] are 81.90%, 4.12 ratio and 3.79 ratio.
In the same order, the values of `O=C(NCCc1ccc(Cl)cc1)c1ccc(OC2CCN(Cc3ccccn3)CC2)cc1` [No. 264785] are 80.62%, 3.58 ratio and 3.70 ratio.
Take `O=C(NC1CCCC1)c1ccc(OC2CCN(Cc3ccoc3)CC2)c(Cl)c1` [No. 268508]: the “pAMPK/AMPK (%)” value at AdipoR1 [1] amounted to 80.12%. Further, in the assay with AdipoR1 [2], the “pAMPK/AMPK (ratio) siRNA, AdipoR1 siRNA” value was determined as 2.87 ratio and the “pAMPK/AMPK (ratio) siRNA, unrelated siRNA” value is 2.58 ratio.
The like results for `C#CCN(Cc1ccco1)C(=O)c1ccc(OC2CCN(Cc3ccccn3)CC2)cc1` [No. 268949] were, in that order, 86.36%, 2.82 ratio and 3.10 ratio.
In the same order, the values of `COc1ccccc1CN1CCC(Oc2ccc(C(=O)NC3CCCC3)cc2Cl)CC1` [No. 272299] are 91.22%, 2.60 ratio and 2.83 ratio.
In the same order, the values of `CC#CCN(Cc1ccco1)C(=O)c1ccc(OC2CCN(Cc3ccccn3)CC2)cc1` [No. 272350] are 84.20%, 2.54 ratio and 2.03 ratio.
Turning to `COCCNC(=O)c1ccc(OC2CCN(Cc3cc(OC)ccc3F)CC2)c(Cl)c1` [No. 274971], the “pAMPK/AMPK (%)” value at AdipoR1 [1] was determined as 81.64%. Moreover, in the assay on AdipoR1 [2], the “pAMPK/AMPK (ratio) siRNA, AdipoR1 siRNA” value is on record as 2.51 ratio and the “pAMPK/AMPK (ratio) siRNA, unrelated siRNA” value is reported as 2.38 ratio.
In the same order, the values of `CCc1ccc(CN2CCC(Oc3ccc(C(=O)NCCOC)cc3Cl)CC2)cc1` [No. 466151] are 89.26%, 1.94 ratio and 2.22 ratio.
In the same order, the values of `COCCNC(=O)c1ccc(OC2CCN(Cc3cc4ccccc4o3)CC2)c(Cl)c1` [No. 473771] are 85.03%, 2.39 ratio and 1.67 ratio.
In the same order, the values of `COCCNC(=O)c1ccc(OC2CCN(Cc3cccc4nonc34)CC2)c(Cl)c1` [No. 484140] are 81.88%, 2.30 ratio and 2.34 ratio.
Regarding `Cc1cccc(CN2CCC(Oc3ccc(C(=O)NC4CCCC4)cc3Cl)CC2)n1` [No. 492284], on AdipoR1 [1], the “pAMPK/AMPK (%)” value was 90.14%. In addition, in the assay on AdipoR1 [2], the “pAMPK/AMPK (ratio) siRNA, AdipoR1 siRNA” value is 1.88 ratio and the “pAMPK/AMPK (ratio) siRNA, unrelated siRNA” value was 2.05 ratio.

Values taken from US20170298051A1, “ACTIVATOR OF ADIPONECTIN RECEPTOR” (THE UNIVERSITY OF TOKYO, priority 2013, published 2017).
